Assay results taken from patent publication US9944618B2, “Inhibiting neurotransmitter reuptake” (Mayo Foundation for Medical Education and Research, priority 2013, dated 2018).
Where two headings read alike, the source gives them in different places.

Key:
[1] = pKa of basic centres (Table 1); format: physicochemical
CYP3A4 = CYP3A4 (Homo sapiens (Human), UniProt P08684); experiment: Cytochrome P450 inhibition assay, recombinant CYP3A4 (BFC substrate); format: in vitro ADME; details: recombinant enzyme
Protocol: (§2) Recombinant enzymes, 3A4 and 2D6, generated using the ABL yeast expression system were used. […] The assay mixture also included K2HPO4 (pH 7.4; conc. 0.1 M) and NADPH (conc. 1 mM). The incubation time was 30 minutes, and the reference inhibitor was A-naphthoflavone. For CYP2D6, the enzyme amount was 2 pmol per well, and the substrate (7-methoxy-4-(aminomethyl)-coumarin; MAMC) was used at 20 μM. The assay mixture also included K2HPO4 (pH 7.4; conc. 0.1 M) and NADPH (conc. 0.06 mM). The incubation time was 35 minutes, and the reference inhibitor was quinidine.
(§3) Briefly, 0.6 μL of serially diluted compound was added to 75 μL water. 10 μL of diluted compound in water was then added to each assay plate. 20 μL of a K2HPO4, enzyme, and substrate mixture was added. After 10 minutes of room temperature pre-incubation, 10 μL of NADPH was added, and the plates were placed at 37° C. for 30 or 35 minutes depending on the enzyme being tested. After the incubation was complete, 20 μL of 0.1% Tris/ACN was added to the plate. The plate was read on a FluorStar fluorescence plate reader.

CYP2D6 = CYP2D6 (Homo sapiens (Human), UniProt P10635); experiment: Cytochrome P450 inhibition assay, recombinant CYP2D6 (MAMC substrate); format: in vitro ADME; details: recombinant enzyme
Protocol: as §2, §3

[2] = target: human dopamine transporter (Homo sapiens (Human), UniProt Q01959); experiment: Human DAT (dopamine transporter) uptake assay; format: cell-based; details: read-out: hDAT Ki
Protocol: This protocol was designed to measure inhibition of uptake by the human dopamine transporter. […] The Assay Buffer (AB) was 1×HBSS and 0.02 M HEPES.
(§1) The HEK293F cells were transfected with the human dopamine transporter and frozen in 1 mL aliquots at about 1E+07 cells/mL. On the day of the experiment, the cells were removed from −80° C. or liquid nitrogen and thawed in a room temperature water bath. The cells were dilute to about 1-2E+06 with Freestyle medium. A 1 mL sample (1:2 dilution) was prepared, and the cells were counted. The cells were spun at 1100 rpm for 5 minutes, and the medium was aspirated off. The cells were resuspend in medium at 1.5E+06 cells/mL for about 60,000 cells per well. 40 μL of cells were dispensed per well in the Biocoat plates. The plates were spun at 1100 rpm for 1 minute to improve homogeneity of the cell layer and were incubated at 37° C. for a minimum of 3 hours.
12 μL of test compound (10 mM) in DMSO was added to the wells, and nomifensine was used as a control. […] The neurotransmitter transporter dye was prepared in AB prior to use.
Due to the proprietary nature of the dye formulation, all dye concentrations were expressed as a percentage of the vendor-recommended dye reconstitution. Thus, the above calculations were valid when both [dye] and K1 were expressed in the same units (%). Compounds were tested in triplicate (n=3).

[3] = target: human serotonin transporter (Homo sapiens (Human), UniProt P31645); experiment: Human SERT (serotonin transporter) uptake assay; format: cell-based; details: read-out: hSERT Ki
Protocol: This protocol was designed to measure inhibition of uptake by the human serotonin transporter. […] The Assay Buffer (AB) was […] and 0.02 M HEPES.
as §1, with “serotonin” for “dopamine”
12 μL of test compound (10 mM) in DMSO was added to the wells, and nomifensine was used as a control. Fluoxetine (final assay concentration of 10 μM) was used for background signal. The neurotransmitter transporter dye was prepared in AB prior to use.
Due to the proprietary nature of the dye formulation, all dye concentrations were expressed as a percentage of the vendor-recommended dye reconstitution. Thus, the above calculations were valid when both [dye] and Km were expressed in the same units (%). Compounds were tested in triplicate (n=3).

[4] = target: human norepinephrine transporter (Homo sapiens (Human), UniProt P23975); experiment: Human NET (norepinephrine transporter) uptake assay; format: cell-based; details: read-out: hNET Ki
Procedure, shortened: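 HEK293F cells transfected with human NET were thawed, plated at about 60,000 cells/well and held at 37 °C for at least 3 h. Compounds came from 10 mM DMSO stocks, with nomifensine as control, in 1×HBSS/0.02 M HEPES. Uptake was followed with a neurotransmitter transporter dye, dosed as % of vendor reconstitution, in triplicate.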

[5] = first base, e.g., an aliphatic primary, secondary, or tertiary amine, read-out: pKa (Base 1)
[6] = second base in the same molecule (if present), read-out: pKa (Base 2)

Chain of CYP3A4 (P08684 whole entry): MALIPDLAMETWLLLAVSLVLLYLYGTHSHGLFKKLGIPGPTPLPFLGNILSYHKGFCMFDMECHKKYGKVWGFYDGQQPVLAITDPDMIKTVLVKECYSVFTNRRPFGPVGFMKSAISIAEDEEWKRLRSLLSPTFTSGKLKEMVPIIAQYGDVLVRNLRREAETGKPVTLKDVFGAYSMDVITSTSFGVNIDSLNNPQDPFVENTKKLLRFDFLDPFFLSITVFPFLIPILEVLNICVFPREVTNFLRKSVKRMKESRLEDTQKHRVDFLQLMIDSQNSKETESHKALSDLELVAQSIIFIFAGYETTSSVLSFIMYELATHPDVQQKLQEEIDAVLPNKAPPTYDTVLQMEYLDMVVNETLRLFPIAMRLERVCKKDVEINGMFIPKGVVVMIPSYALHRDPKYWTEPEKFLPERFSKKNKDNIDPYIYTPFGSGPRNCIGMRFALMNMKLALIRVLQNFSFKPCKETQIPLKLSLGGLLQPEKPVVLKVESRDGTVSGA
Chain of CYP2D6 (P10635 whole entry): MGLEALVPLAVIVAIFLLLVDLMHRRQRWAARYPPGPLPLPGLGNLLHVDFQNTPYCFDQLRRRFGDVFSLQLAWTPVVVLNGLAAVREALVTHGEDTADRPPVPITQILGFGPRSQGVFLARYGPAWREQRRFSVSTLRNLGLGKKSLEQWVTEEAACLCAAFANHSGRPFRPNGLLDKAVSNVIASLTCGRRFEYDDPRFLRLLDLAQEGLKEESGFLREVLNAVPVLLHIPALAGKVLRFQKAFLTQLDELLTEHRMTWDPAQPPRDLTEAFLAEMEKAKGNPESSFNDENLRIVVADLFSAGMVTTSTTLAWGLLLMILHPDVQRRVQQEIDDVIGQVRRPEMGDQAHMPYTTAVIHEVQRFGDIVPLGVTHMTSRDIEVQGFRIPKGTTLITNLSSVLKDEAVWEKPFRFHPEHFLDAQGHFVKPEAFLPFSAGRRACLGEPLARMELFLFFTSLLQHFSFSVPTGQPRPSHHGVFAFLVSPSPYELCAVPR
Chain of human norepinephrine transporter (P23975 whole entry): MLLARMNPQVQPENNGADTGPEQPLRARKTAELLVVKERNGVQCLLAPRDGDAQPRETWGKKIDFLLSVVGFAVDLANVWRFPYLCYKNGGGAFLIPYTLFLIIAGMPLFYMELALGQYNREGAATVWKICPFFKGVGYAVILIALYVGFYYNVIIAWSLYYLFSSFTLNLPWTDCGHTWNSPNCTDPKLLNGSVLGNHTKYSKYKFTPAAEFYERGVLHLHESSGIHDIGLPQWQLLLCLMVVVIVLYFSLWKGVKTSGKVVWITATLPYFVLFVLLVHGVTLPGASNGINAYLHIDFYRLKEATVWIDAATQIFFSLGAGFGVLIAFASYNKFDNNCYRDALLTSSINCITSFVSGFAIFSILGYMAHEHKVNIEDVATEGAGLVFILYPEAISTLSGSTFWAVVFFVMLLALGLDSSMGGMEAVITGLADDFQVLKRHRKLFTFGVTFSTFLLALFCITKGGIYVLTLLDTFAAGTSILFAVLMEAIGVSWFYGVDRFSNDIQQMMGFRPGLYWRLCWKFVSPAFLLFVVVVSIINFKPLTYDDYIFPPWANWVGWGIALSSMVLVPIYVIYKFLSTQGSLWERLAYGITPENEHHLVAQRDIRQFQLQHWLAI
Chain of human serotonin transporter (P31645 whole entry): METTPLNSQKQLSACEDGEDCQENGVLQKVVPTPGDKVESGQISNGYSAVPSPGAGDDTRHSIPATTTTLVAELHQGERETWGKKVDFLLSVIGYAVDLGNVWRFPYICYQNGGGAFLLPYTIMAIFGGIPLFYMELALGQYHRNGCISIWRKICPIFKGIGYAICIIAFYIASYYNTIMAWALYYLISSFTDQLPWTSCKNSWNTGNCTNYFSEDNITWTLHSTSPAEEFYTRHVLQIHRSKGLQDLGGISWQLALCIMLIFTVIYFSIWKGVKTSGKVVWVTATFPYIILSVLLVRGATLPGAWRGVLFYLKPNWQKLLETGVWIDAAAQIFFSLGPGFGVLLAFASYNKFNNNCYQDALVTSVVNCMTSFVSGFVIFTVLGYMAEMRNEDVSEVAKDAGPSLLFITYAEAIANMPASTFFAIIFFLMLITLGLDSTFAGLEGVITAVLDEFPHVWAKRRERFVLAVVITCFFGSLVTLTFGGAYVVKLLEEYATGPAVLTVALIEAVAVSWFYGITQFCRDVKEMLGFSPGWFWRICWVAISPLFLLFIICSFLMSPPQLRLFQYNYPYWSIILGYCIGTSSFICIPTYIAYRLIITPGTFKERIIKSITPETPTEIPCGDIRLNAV
Chain of human dopamine transporter (Q01959 whole entry): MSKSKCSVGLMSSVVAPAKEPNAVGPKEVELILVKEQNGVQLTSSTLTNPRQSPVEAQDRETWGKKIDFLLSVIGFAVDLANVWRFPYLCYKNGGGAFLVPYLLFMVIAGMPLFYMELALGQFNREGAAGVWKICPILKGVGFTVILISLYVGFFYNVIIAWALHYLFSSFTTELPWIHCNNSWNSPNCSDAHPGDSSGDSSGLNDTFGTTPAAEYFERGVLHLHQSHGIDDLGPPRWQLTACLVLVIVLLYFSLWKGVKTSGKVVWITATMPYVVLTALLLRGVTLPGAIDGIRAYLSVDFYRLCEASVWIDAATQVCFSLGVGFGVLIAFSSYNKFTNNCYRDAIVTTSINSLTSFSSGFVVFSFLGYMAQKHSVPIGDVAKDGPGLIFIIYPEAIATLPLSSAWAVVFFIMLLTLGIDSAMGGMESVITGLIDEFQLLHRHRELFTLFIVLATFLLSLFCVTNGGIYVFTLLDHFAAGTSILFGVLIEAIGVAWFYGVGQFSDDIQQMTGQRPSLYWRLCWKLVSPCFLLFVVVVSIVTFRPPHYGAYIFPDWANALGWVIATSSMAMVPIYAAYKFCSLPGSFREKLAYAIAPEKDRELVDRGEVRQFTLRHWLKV

Compound	pKa [1, 5]	IC50 (CYP3A4) [µM]	IC50 (CYP2D6) [µM]	Ki [2] [µM]	Ki [3] [µM]	Ki [4] [µM]	pKa [1, 6]	pKa (Base 1) ([1]; first base, e.g., an aliphatic primary, secondary, or tertiary amine)	pKa (Base 2) ([1]; second base in the same molecule (if present))
CNC[C@H](c1ccc(Cl)c(Cl)c1)[C@@H](O)c1cccc(N)c1 [Compound 63]	9.4	8.3	2.8	0.0782	0.853	0.0067	4.3	–	–
CNC[C@H](c1ccc(Cl)c(Cl)c1)[C@H](O)c1cccc([N+](=O)[O-])c1 [Compound 102]	9.3	5.7	0.12	0.0293	0.0862	0.0552	–	–	–
CNC[C@@H](c1ccc2ccccc2c1)[C@@H](O)c1cccnc1 [Compound 103]	–	20	11	0.0919	0.0586	0.0576	–	9.6	5.1
CNC[C@H](c1ccc(Cl)c(Cl)c1)[C@@H](O)c1cccnc1OC [Compound 104]	9.2	0.27	0.066	0.0946	0.656	0.0606	3.2	–	–
CNC[C@@H](c1ccc(Cl)c(Cl)c1)[C@@H](O)c1ccsc1 [Compound 106]	9.5	20	3.9	0.0197	0.742	0.0806	–	–	–
CNC[C@@H](c1ccc(Cl)c(Cl)c1)[C@@H](O)c1cncc(OC)c1 [Compound 109]	9.3	20	1.1	0.0667	0.646	0.12	4.5	–	–
NCC[C@@H](Cc1cccnc1)c1ccc(Cl)c(Cl)c1 [Compound 112]	8.6	18	2.9	0.273	0.154	0.148	5.1	–	–
CNC[C@@H](c1ccc(Cl)c(Cl)c1)[C@@H](O)c1cccc(N)c1 [Compound 119]	9.4	7.9	4.1	0.0755	1.78	0.257	4.3	–	–
CNC[C@@H](c1ccc(Cl)c(Cl)c1)[C@@H](O)c1cccc(SC)c1 [Compound 120]	9.4	9	2.4	0.0885	0.662	0.262	–	–	–
CNC[C@@H](c1ccc(Cl)c(Cl)c1)[C@@H](O)c1cccc(NS(=O)(=O)C(F)(F)F)c1 [Compound 121]	9.4	20	20	0.005	2.85	0.27	–	–	–
CNC[C@@H](c1ccc2ccccc2c1)[C@@H](O)c1cncc(OC)c1 [Compound 122]	9.6	20	3.4	0.0496	0.124	0.273	4.5	–	–
CNC[C@@H](c1ccc(Cl)c(Cl)c1)[C@@H](O)c1cccc(N2CCOCC2)c1 [Compound 125]	9.4	4.8	2.4	0.0653	0.725	0.371	5.1	–	–
NC[C@@H](c1ccc2ccccc2c1)[C@@H](O)c1ccc(Cl)nc1 [Compound 126]	8.3	20	3.9	0.125	0.107	0.5	–	–	–
NC[C@@H](Cc1ccccc1O)c1ccc2ccccc2c1 [Compound 133]	9.4	10	0.58	0.0527	0.116	0.0346	–	–	–
CNC[C@@H](c1ccc(Cl)c(Cl)c1)[C@@H](O)c1cccc(Br)c1 [Compound 162]	9.4	4.9	0.79	0.11	0.806	0.108	–	–	–
CNC[C@H](c1ccc(Cl)c(Cl)c1)[C@@H](O)c1cccc(SC)c1 [Compound 163]	9.4	14	0.73	0.11	0.192	0.08	–	–	–

Now from value to compound, other results behind:

pKa [1, 5]	IC50 (CYP3A4) [µM]	IC50 (CYP2D6) [µM]	Ki [2] [µM]	Ki [3] [µM]	Ki [4] [µM]	pKa [1, 6]	Compound	pKa (Base 1) ([1]; first base, e.g., an aliphatic primary, secondary, or tertiary amine)	pKa (Base 2) ([1]; second base in the same molecule (if present))
10	20	0.81	1.63	0.0018	0.0046	–	CNC[C@H](c1ccc(OC)c(C)c1)[C@H](O)c1cccnc1 [Compound 55]	–	–
10	16	0.56	0.505	0.0021	0.0104	4.8	CNCC(Cc1ccccc1)c1ccc2cccnc2c1 (stereo not shown) [Compound 75]	–	–
9.3	20	3.5	0.073	2.74	0.0544	–	CNC[C@H](c1ccc(Cl)c(Cl)c1)[C@H](O)c1cccc(S(C)(=O)=O)c1 [Compound 101]	–	–
8.5	19	2.4	0.126	0.727	0.0822	–	NCC(c1ccc2ccccc2c1)C(O)c1ccc(F)cc1F (stereo not shown) [Compound 107]	–	–
9.6	20	5.5	0.0129	0.796	0.236	–	CNC[C@@H](c1ccc2ccccc2c1)[C@@H](OCC(N)=O)c1ccccc1 [Compound 117]	–	–
9.4	20	15	0.0805	3.28	0.649	–	CNC[C@H](c1ccc(Cl)c(Cl)c1)[C@@H](O)c1cccc(NS(=O)(=O)C(F)(F)F)c1 [Compound 127]	–	–
9.4	20	19	0.193	3.04	2.63	–	CNC[C@@H](c1ccc(Cl)c(Cl)c1)[C@@H](O)c1ccccc1[S+](C)[O-] (stereo partly shown) [Compound 128]	–	–
9.6	20	0.37	0.0919	0.296	0.0326	–	CNC[C@H](c1ccc2ccccc2c1)[C@@H](O)c1cc(F)cc(F)c1 [Compound 141]	–	–
9.6	20	0.66	0.0953	0.208	0.0138	–	CNC[C@@H](c1ccc2ccccc2c1)[C@H](O)c1cc(F)cc(F)c1 [Compound 142]	–	–
9.4	2	0.044	0.0318	0.935	0.126	–	CNC[C@H](c1ccc(Cl)c(Cl)c1)[C@@H](O)c1ccccc1I [Compound 152]	–	–
9.2	20	0.58	0.0534	0.14	0.0884	–	CNC[C@@H](c1ccc(Cl)c(Cl)c1)[C@@H](O)c1cccc(OC)n1 [Compound 157]	–	–
9.4	2.5	0.17	0.0558	0.0695	0.0554	–	CCc1cccc([C@@H](O)[C@H](CNC)c2ccc(Cl)c(Cl)c2)c1 [Compound 159]	–	–
9.4	9.2	0.16	0.103	0.616	0.0385	–	CNC[C@H](c1ccc(Cl)c(Cl)c1)[C@@H](O)c1cccc(Br)c1 [Compound 161]	–	–
9.3	0.24	0.63	0.132	0.0369	0.0924	4.5	CNC[C@H](c1ccc(Cl)c(Cl)c1)[C@H](O)c1cncc(OC)c1 [Compound 166]	–	–
